Assay results published in paper PMC13021670, “Novel small molecule targeting PgQC reduces Porphyromonas gingivalis virulence” (Frontiers in Oral Health, 2026).

Target: T1, P. gingivalis glutaminyl cyclase (PgQC) (Porphyromonas gingivalis, UniProt Q7MT37)
T1 construct: gene PG_2157; Recombinant P. gingivalis glutaminyl cyclase
Assay: fluorogenic enzyme assay with H-Gln-AMC, recombinant purified PgQC ([…]), fit to competitive inhibition
Assay type: biochemical

T1 sequence (Q7MT37 entry or part of it): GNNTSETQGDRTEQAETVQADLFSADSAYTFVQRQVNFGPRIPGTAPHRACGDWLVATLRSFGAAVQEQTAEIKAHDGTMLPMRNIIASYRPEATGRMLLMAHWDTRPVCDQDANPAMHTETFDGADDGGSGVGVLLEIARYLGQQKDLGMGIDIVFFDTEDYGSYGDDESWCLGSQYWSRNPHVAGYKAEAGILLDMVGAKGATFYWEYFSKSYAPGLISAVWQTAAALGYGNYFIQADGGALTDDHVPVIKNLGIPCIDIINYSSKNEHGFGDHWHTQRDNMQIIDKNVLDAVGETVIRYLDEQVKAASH

Question: With `N=C(N)NCCOc1ccc(CNc2cnc3nc[nH]c3c2)cc1` [S-0636, 1-(2-(4-((lmidazo[4,5-b]pyridin-6-ylamino)methyl)-phenoxy)ethyl)guanidine] as the compound, how does the Ki read?
Answer: The Ki was 14 nM.
